According to patent US20160084820A1, “METHODS OF TREATING OR PREVENTING PERIODONTITIS AND DISEASES ASSOCIATED WITH PERIODONTITIS” (priority 2010, published 2016):

Assays:
[1] = tested on: phagocytosed P. gingivalis in mouse peritoneal macrophages; assay type: cell-based, P. gingivalis ATCC 33277; settings: Pg MOI=10:1; C5a 50 nM or C3a 200 nM; 24 or 48 hours post-infection
Experimental: The viability of phagocytosed P. gingivalis was monitored by an antibiotic protection-based intracellular survival assay, as previously described (Wang et al., 2007, J. Immunol., 179:2349-58). Briefly, mouse peritoneal macrophages were allowed to phagocytose P. gingivalis (MOI=10:1; 5×10^6 bacteria and 5×10^5 cells) for […] at 37° C. This was followed by washing to remove extracellular nonadherent bacteria and 1-hour treatment with antibiotics (300 μg/ml gentamicin and 200 μg/ml metronidazole) to eliminate residual or extracellular adherent bacteria. The macrophages were subsequently cultured overnight (for a total of 24 hours) or for 48 hours Immediately after, the macrophages were washed and lysed in sterile distilled water, and viable counts of internalized P. gingivalis were determined by plating serial dilutions of macrophage lysates on blood agar plates subjected to anaerobic culture.
The viability of phagocytosed P. gingivalis was monitored by an antibiotic protection-based intracellular survival assay, as previously described (Wang et al., 2007, J. Immunol., 179:2349-58)). Briefly, mouse peritoneal macrophages were allowed to phagocytose P. gingivalis (at a MOI=10:1; 5×10^6 bacteria and 5×10^5 macrophages) for 30 min at 37° C. This was followed by washing to remove extracellular nonadherent bacteria and 1-hour treatment with antibiotics (300 μg/ml gentamicin and 200 μg/ml metronidazole) to eliminate residual or extracellular adherent bacteria. The macrophages were subsequently cultured overnight for a total of 24 hours Immediately after, the macrophages were washed and lysed in sterile distilled water and viable counts of internalized P. gingivalis were determined by plating serial dilutions of macrophage lysates on blood agar plates subjected to anaerobic culture.

[2] = tested on: mouse peritoneal macrophages; experiment: P. gingivalis phagocytosis and receptor expression by flow cytometry; assay type: cell-based; settings: C5a 50 nM or C3a 200 nM, 30-min incubation
Experimental: First, experiments were performed to determine the effect of C5a (50 nM) or C3a (200 nM) on P. gingivalis phagocytosis by unprimed or IFN-γ-primed mouse peritoneal macrophages (FIG. 6A). The phagocytic index was calculated following a 30-min incubation using the following formula: % positive cells for fluorescently labeled P. gingivalis×MFI/100 (extracellular fluorescence was quenched prior to flow cytometry). Mouse macrophages were incubated at 37° C. for 30 min (B) or 24 hours (C) with medium, C5a (50 nM) only, or P. gingivalis (MOI=10:1) with or without C5a (50 nM). The expression levels of the indicated receptors, which coordinately mediate P. gingivalis uptake, were determined by flow cytometry after cell staining with appropriate fluorescently labeled antibodies (FIGS. 6B and 6C). The 30-min time point was examined to determine possible induced surface expression of preformed receptors from intracellular pools. […] Mouse-specific mAbs to TLR2 (clone 6C2), TLR1 (TR23), CD14 (Sa2-8), CD11b (M1/70), and CD18 (M18/2) were obtained from e-Bioscience.

[3] = tested on: lipid rafts (GM1 ganglioside); experiment: FRET of TLR2, C5aR, CXCR4 with GM1 lipid raft marker; assay type: cell-based, mouse; settings: MCD 10 mM for 30 min
Experimental: Upon stimulation for 10 min at 37° C. with P. gingivalis, mouse macrophages were labeled with a mixture of Cy3-conjugated (donor) and Cy5-conjugated (acceptor) antibodies, as indicated in FIG. 4I. In additional experiments shown in FIG. 4I, FITC-labeled P. gingivalis was used as donor and TRITC-labeled receptors served as acceptors. The cells were washed and fixed, and energy transfer between various donor-acceptor pairs was calculated from the increase in donor fluorescence after acceptor photobleaching (REF 9, 14). […] The conjugation of antibodies to Cy3 or Cy5 was performed using kits from Amersham Biosciences.
Supplemental experiments also examined the association of TLR2, C5aR, and CXCR4 with GM1 (lipid raft marker) in P. gingivalis-stimulated macrophages (FIG. 10). Mouse macrophages were pretreated (or not) with methyl-β-cyclodextrin (MCD; 10 mM for 30 min) and then stimulated for 10 min with P. gingivalis (Pg; MOI=10:1) or medium only (med). Fluorescence resonance energy transfer (FRET) between TLR2, C5aR, CXCR4, TLR5, or MHC Class I (Cy3-labeled) and the GM1 ganglioside (Cy5-labeled) was measured from the increase in donor (Cy3) fluorescence after acceptor (Cy5) photobleaching. TLR5 and MHC Class I served as negative controls. […] As expected, max FRET values (38±1.2) were not affected by the cell activation status (med vs. Pg) or the use or not of MCD.

Substance	intracellular survival of P. gingivalis in macrophages (viable counts of internalized bacteria) [1]	P. gingivalis phagocytosis [2]	FRET increase between receptors and GM1 in P. gingivalis-stimulated macrophages [3]
C3a: related anaphylatoxin C3a from R&D Systems	not by the related anaphylatoxin C3a	not significantly affected	–
methyl-β-cyclodextrin [MCD]	–	–	reversal of FRET increase
